The results in this text go back to patent US12410185B2, “Compounds targeting mutant calreticulin” (MYELOPRO DIAGNOSTICS AND RESEARCH GmbH, priority 2018, dated 2025).

The test system of assay [1] is CD34+ cells from CALR mutated patients. Description: colony formation assay. In kind it is cell-based, human. As to conditions: 40 uM hematoxylin vs DMSO.
Excerpt: CD34-positive cells from healthy controls and CALR mutant patients were isolated by EasySep™ Human CD34 Positive Selection Kit (#18056; [sequence] Technologies) according to the manufacturer's instructions. StemSpan™ SFEM II (#09655 or #17856; [sequence] Technologies) supplemented with 1× StemSpan™ CD34+ Expansion Supplement (#02691; [sequence] Technologies) was used to culture and expand the isolated CD34-positive cells, preferably for no more than 8 days before experiments or storage. 1000 human CD34-positive cells were plated in 1 ml of Methocult classic medium ([sequence] Technologies, #H4434) with 40 uM hematoxylin or DMSO control. Cells were incubated for 14 days before colony counting. Statistical test was calculated using two-way ANOVA with Sidak's multiple comparisons test.
Assay [2] has as its system Ba/F3-MPL CALR del52/WT cells mixed with Ba/F3-MPL CALR WT cells. Kind of assay: two-color competition assay, 12 days. The assay is classed as cell-based, mouse. The following applies: in the presence of TPO, compared to DMSO control. As for the experimental part:
FIG. 10: Competition assay of hematoxylin treatment in Ba/F3-MPL cells. Ba/F3-MPL CALR WT (GFP negative) and Ba/F3-MPL CALR del52/WT (GFP positive) cells were mixed and underwent hematoxylin treatment for 12 days. Drug and cytokine were refreshed every 3 days. Percentage of GFP positive cells were recorded by FACs.
To determine long-term viability, a two-color competition assay was used. Cell lines were transduced with pMSCV-IRES-GFP/mCherry construct, and the fluorescence-positive cells were sorted by a SH800Z Cell Sorter (Sony). GFP/mCherry-positive cell lines were mixed with their non-fluorescent control cells in a 1:1 ratio and underwent compound treatment for 3-12 days. Compounds and cytokines were refreshed every 3 days. Cell samples were analyzed at each time point by a BD LSRFortessa™ cell analyzer (BD Biosciences).

Assay [3] deals with UT-7-TPO mutant cell lines. Description: 72 h dose response test, CellTiter-Glo cell viability assay. The assay is classed as cell-based. As to conditions: UT-7-TPO cell lines, mutant vs wild-type. The source says: Among 140.000 structures, a list of compounds with the highest binding energy and specificity towards calreticulin was generated. Relying on compounds that were either commercially available or available from the DTP Databases of the National Cancer Institute (NCI), a docking compound library including 41 compounds was assembled, […] CALR cell lines (FIGS. 5 and 6). […] Two hits were identified as preferentially inhibiting mutant CALR cell line growth. […] Therefore, hematoxylin and derivatives thereof were used for further testing.
For orientation: In ATP-based viability assays light output follows the ATP content of the culture.

Assay [4] concerns the target wild-type CALR protein (Homo sapiens, UniProt P27797). Kind of assay: binding assay (data not shown).
Assay [5] addresses T1, mutant calreticulin (Homo sapiens, UniProt P27797).
T1 construct: CD34-positive cells isolated from a healthy control and a CALR ins5 mutant patient; endogenous in cells; host or cells: primary CD34-positive cells from a CALR ins5 mutant patient
Kind of assay: Western blot analysis of CD34-positive cells from a CALR ins5 mutant patient. On the set-up: dose or concentration left out as unconfirmed. As to conditions: hematoxylin, 8 hours. The assay is classed as cell-based. On the procedure:
2 million Ba/F3-MPL CALR WT or mutant cells were treated with hematoxylin or the equivalent volume of DMSO in a total volume of 15 ml of RPMI media in T75 flasks (Thermal Fisher Scientific). Cells were collected and washed with PBS before being lysed in whole cell lysis buffer containing 20 mM HEPES, 20% glycerol, 50 mM KCl, 400 mM NaCl, 1 mM EDTA, 1 mM DTT, 5 mM Na orthovanadate, 0.5% NP40, 0.1% Tween 20, supplemented with cOmplete™, Mini, EDTA-free Protease Inhibitor Cocktail (Sigma) and PhosSTOP™ (Sigma). Samples were rotated at 4° C. for 20 min prior to centrifugation at […] for 20 min. The soluble fraction of the sample was collected. Protein concentration was quantified by the Bio-Rad Protein Assay (Bio-Rad) according to the manufacturer's instructions and measured by a SpectraMax Microplate Reader (Molecular Devices). Equal amounts of protein were loaded for 8% or 10% SDS-polyacrylamide gel electrophoresis prior to transfer to Amersham™ Protran® nitrocellulose membranes at 35V, 4° C. overnight. Membranes were then blocked by 5% bovine serum albumin fraction V (Sigma) or milk. Mutant calreticulin was detected by a polyclonal rabbit antibody against the mutant specific C-terminal peptide (Myelopro). […]
In general terms: Immunoblotting shows a protein as a band on a membrane.

Assay [6] relates to CALR wild-type cell line. Kind of assay: 72 h dose response of hematoxylin, analogues and control compounds. The assay is classed as cell-based. The following applies: 72 h assay; read-out: IC50 in wild-type cell line. As for the experimental part: Ba/F3 and UT-7-TPO were plated 5.000 cells/well and 16.000 cells/well into 96-well plates with the desirable concentrations of compounds or cytokines added to a total volume of 100 ul. 72 hours later, the CellTiter-Glo luminescent Cell Viability Assay (Promega) was used to determine the cell viability. The luminescent signal was detected by a VICTOR Multilabel Plate Reader (PerkinElmer). Dose response data was analyzed by Graphpad Prism 7.0.
To further explore the chemical space of the compound, a few hematoxylin analogues were also tested (FIGS. 15 to 17). […] The compounds Protosappanin B (A-4) and RJ002 (B-2) were also tested. […] As a comparison, the clinically used chemotherapeutic drugs hydroxyurea and ruxolitinib were also tested in the cell models.

As usually defined, the IC50 is the concentration that inhibits the measured activity by half.

T1 sequence (P27797 with tags, fused parts or gaps, stated change not applied): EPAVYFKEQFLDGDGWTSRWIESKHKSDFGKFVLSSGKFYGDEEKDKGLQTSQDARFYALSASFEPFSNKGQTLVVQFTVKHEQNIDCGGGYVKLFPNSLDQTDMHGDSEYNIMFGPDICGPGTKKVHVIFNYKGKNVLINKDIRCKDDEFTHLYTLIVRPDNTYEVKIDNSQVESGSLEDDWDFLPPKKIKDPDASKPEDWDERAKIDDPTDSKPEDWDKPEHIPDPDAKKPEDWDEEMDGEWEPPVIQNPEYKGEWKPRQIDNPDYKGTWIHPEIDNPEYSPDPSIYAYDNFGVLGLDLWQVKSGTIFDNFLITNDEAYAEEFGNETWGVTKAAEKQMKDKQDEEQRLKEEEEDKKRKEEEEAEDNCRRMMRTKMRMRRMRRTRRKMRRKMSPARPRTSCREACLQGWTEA
wild-type CALR protein, sequence (P27797 18-417): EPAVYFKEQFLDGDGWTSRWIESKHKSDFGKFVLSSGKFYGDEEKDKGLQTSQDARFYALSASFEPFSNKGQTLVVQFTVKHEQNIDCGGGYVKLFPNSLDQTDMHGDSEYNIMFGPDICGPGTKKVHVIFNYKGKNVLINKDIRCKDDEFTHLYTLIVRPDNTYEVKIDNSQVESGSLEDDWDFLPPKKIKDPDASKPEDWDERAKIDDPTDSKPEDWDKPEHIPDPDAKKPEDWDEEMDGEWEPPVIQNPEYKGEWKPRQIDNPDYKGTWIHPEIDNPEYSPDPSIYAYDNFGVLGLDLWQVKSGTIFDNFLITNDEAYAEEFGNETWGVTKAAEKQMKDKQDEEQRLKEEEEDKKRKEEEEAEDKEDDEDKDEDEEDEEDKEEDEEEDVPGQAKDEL

As for `Oc1cc2c(cc1O)[C@@H]1c3ccc(O)c(O)c3OC[C@]1(O)C2` [hematoxylin, Hematoxylin], the “number of colony forming units” value in assay [1] is reported as “significantly reduced”. Besides, in assay [2], the “depletion of CALR mutant cells in co-cultivation with CALR WT cells” value is “almost completely depleted”. In addition, the “hypersensitivity of mutant cell lines to the compound” value in assay [3] was “hypersensitivity of mutant cell lines to the compound could be reproduced”. The “binding to wild-type CALR protein” value in assay [4] was “bound”. Besides, the “protein abundance of mutant calreticulin” value in assay [5] is “drastically reduced”. The IC50 in assay [6] was determined as 11.1 µM.
